Test results published in the NIST ThermoML archive (doi:10.1016/j.jct.2012.03.003).

Test: xn = mol fraction of the nth substance listed
Details: Liquid, Vibrating tube method

COc1cc2c(cc1O)CC1c3c(cc(O)c(OC)c3-2)CCN1C (stereo not given) [boldine] + CCO
Details	mass density [kg/m3]
313.01 K, 1000 kPa, x1 = 0.0196	817.64
313.01 K, 2000 kPa, x1 = 0.0196	818.47
313.01 K, 3000 kPa, x1 = 0.0196	819.29
313.01 K, 4000 kPa, x1 = 0.0196	820.13
313.01 K, 5000 kPa, x1 = 0.0196	820.98
313.01 K, 6000 kPa, x1 = 0.0196	821.82
313.01 K, 7000 kPa, x1 = 0.0196	822.67
313.01 K, 8000 kPa, x1 = 0.0196	823.53
313.01 K, 9000 kPa, x1 = 0.0196	824.37
313.01 K, 10000 kPa, x1 = 0.0196	825.22
313.01 K, 11000 kPa, x1 = 0.0196	826.07
313.01 K, 12000 kPa, x1 = 0.0196	826.9
313.01 K, 13000 kPa, x1 = 0.0196	827.74
313.01 K, 14000 kPa, x1 = 0.0196	828.55
313.01 K, 15000 kPa, x1 = 0.0196	829.36
313.01 K, 16000 kPa, x1 = 0.0196	830.17
313.01 K, 17000 kPa, x1 = 0.0196	830.96
313.01 K, 18000 kPa, x1 = 0.0196	831.74
313.01 K, 19000 kPa, x1 = 0.0196	832.5
313.01 K, 20000 kPa, x1 = 0.0196	833.23
313.09 K, 1000 kPa, x1 = 0.0012	775.75
313.09 K, 1000 kPa, x1 = 0.0267	829.8
313.09 K, 2000 kPa, x1 = 0.0012	776.61
313.09 K, 2000 kPa, x1 = 0.0267	830.62
313.09 K, 3000 kPa, x1 = 0.0012	777.49
313.09 K, 3000 kPa, x1 = 0.0267	831.43
313.09 K, 4000 kPa, x1 = 0.0012	778.37
313.09 K, 4000 kPa, x1 = 0.0267	832.27
313.09 K, 5000 kPa, x1 = 0.0012	779.27
313.09 K, 5000 kPa, x1 = 0.0267	833.1
313.09 K, 6000 kPa, x1 = 0.0012	780.17
313.09 K, 6000 kPa, x1 = 0.0267	833.94
313.09 K, 7000 kPa, x1 = 0.0012	781.08
313.09 K, 7000 kPa, x1 = 0.0267	834.77
313.09 K, 8000 kPa, x1 = 0.0012	781.99
313.09 K, 8000 kPa, x1 = 0.0267	835.61
313.09 K, 9000 kPa, x1 = 0.0012	782.89
313.09 K, 9000 kPa, x1 = 0.0267	836.46
313.09 K, 10000 kPa, x1 = 0.0012	783.79
313.09 K, 10000 kPa, x1 = 0.0267	837.26
313.09 K, 11000 kPa, x1 = 0.0012	784.7
313.09 K, 11000 kPa, x1 = 0.0267	838.09
313.09 K, 12000 kPa, x1 = 0.0012	785.59
313.09 K, 12000 kPa, x1 = 0.0267	838.91
313.09 K, 13000 kPa, x1 = 0.0012	786.48
313.09 K, 13000 kPa, x1 = 0.0267	839.73
313.09 K, 14000 kPa, x1 = 0.0012	787.35
313.09 K, 14000 kPa, x1 = 0.0267	840.53
313.09 K, 15000 kPa, x1 = 0.0012	788.21
313.09 K, 15000 kPa, x1 = 0.0267	841.33
313.09 K, 16000 kPa, x1 = 0.0012	789.07
313.09 K, 16000 kPa, x1 = 0.0267	842.12
313.09 K, 17000 kPa, x1 = 0.0012	789.89
313.09 K, 17000 kPa, x1 = 0.0267	842.89
313.09 K, 18000 kPa, x1 = 0.0012	790.71
313.09 K, 18000 kPa, x1 = 0.0267	843.66
313.09 K, 19000 kPa, x1 = 0.0012	791.52
313.09 K, 19000 kPa, x1 = 0.0267	844.41
313.09 K, 20000 kPa, x1 = 0.0012	792.31
313.09 K, 20000 kPa, x1 = 0.0267	845.14
313.1 K, 1000 kPa, x1 = 0.0074	788.76
313.1 K, 2000 kPa, x1 = 0.0074	789.61
313.1 K, 3000 kPa, x1 = 0.0074	790.46
313.1 K, 4000 kPa, x1 = 0.0074	791.34
313.1 K, 5000 kPa, x1 = 0.0074	792.21
313.1 K, 6000 kPa, x1 = 0.0074	793.1
313.1 K, 7000 kPa, x1 = 0.0074	793.98
313.1 K, 8000 kPa, x1 = 0.0074	794.88
313.1 K, 9000 kPa, x1 = 0.0074	795.77
313.1 K, 10000 kPa, x1 = 0.0074	796.66
313.1 K, 11000 kPa, x1 = 0.0074	797.53
313.1 K, 12000 kPa, x1 = 0.0074	798.41
313.1 K, 13000 kPa, x1 = 0.0074	799.28
313.1 K, 14000 kPa, x1 = 0.0074	800.14
313.1 K, 15000 kPa, x1 = 0.0074	800.98
313.1 K, 16000 kPa, x1 = 0.0074	801.81
313.1 K, 17000 kPa, x1 = 0.0074	802.63
313.1 K, 18000 kPa, x1 = 0.0074	803.44
313.1 K, 19000 kPa, x1 = 0.0074	804.23
313.1 K, 20000 kPa, x1 = 0.0074	805
313.13 K, 1000 kPa, x1 = 0.0136	801.85
313.13 K, 2000 kPa, x1 = 0.0136	802.69
313.13 K, 3000 kPa, x1 = 0.0136	803.55
313.13 K, 4000 kPa, x1 = 0.0136	804.42
313.13 K, 5000 kPa, x1 = 0.0136	805.28
313.13 K, 6000 kPa, x1 = 0.0136	806.15
313.13 K, 7000 kPa, x1 = 0.0136	807.04
313.13 K, 8000 kPa, x1 = 0.0136	807.92
313.13 K, 9000 kPa, x1 = 0.0136	808.79
313.13 K, 10000 kPa, x1 = 0.0136	809.66
313.13 K, 11000 kPa, x1 = 0.0136	810.53
313.13 K, 12000 kPa, x1 = 0.0136	811.4
313.13 K, 13000 kPa, x1 = 0.0136	812.25
313.13 K, 14000 kPa, x1 = 0.0136	813.1
313.13 K, 15000 kPa, x1 = 0.0136	813.94
313.13 K, 16000 kPa, x1 = 0.0136	814.77
313.13 K, 17000 kPa, x1 = 0.0136	815.58
313.13 K, 18000 kPa, x1 = 0.0136	816.37
313.13 K, 19000 kPa, x1 = 0.0136	817.16
313.13 K, 20000 kPa, x1 = 0.0136	817.92
323.03 K, 1000 kPa, x1 = 0.0012	766.88
323.03 K, 2000 kPa, x1 = 0.0012	767.82
323.03 K, 3000 kPa, x1 = 0.0012	768.76
323.03 K, 4000 kPa, x1 = 0.0012	769.71
323.03 K, 5000 kPa, x1 = 0.0012	770.66
323.03 K, 6000 kPa, x1 = 0.0012	771.62
323.03 K, 7000 kPa, x1 = 0.0012	772.58
323.03 K, 8000 kPa, x1 = 0.0012	773.53
323.03 K, 9000 kPa, x1 = 0.0012	774.49
323.03 K, 10000 kPa, x1 = 0.0012	775.44
323.03 K, 11000 kPa, x1 = 0.0012	776.38
323.03 K, 12000 kPa, x1 = 0.0012	777.32
323.03 K, 13000 kPa, x1 = 0.0012	778.24
323.03 K, 14000 kPa, x1 = 0.0012	779.15
323.03 K, 15000 kPa, x1 = 0.0012	780.06
323.03 K, 16000 kPa, x1 = 0.0012	780.94
323.03 K, 17000 kPa, x1 = 0.0012	781.82
323.03 K, 18000 kPa, x1 = 0.0012	782.68
323.03 K, 19000 kPa, x1 = 0.0012	783.53
323.03 K, 20000 kPa, x1 = 0.0012	784.35
323.04 K, 1000 kPa, x1 = 0.0074	779.9
323.04 K, 1000 kPa, x1 = 0.0196	808.75
323.04 K, 2000 kPa, x1 = 0.0074	780.82
323.04 K, 2000 kPa, x1 = 0.0196	809.64
323.04 K, 3000 kPa, x1 = 0.0074	781.75
323.04 K, 3000 kPa, x1 = 0.0196	810.53
323.04 K, 4000 kPa, x1 = 0.0074	782.68
323.04 K, 4000 kPa, x1 = 0.0196	811.42
323.04 K, 5000 kPa, x1 = 0.0074	783.61
323.04 K, 5000 kPa, x1 = 0.0196	812.32
323.04 K, 6000 kPa, x1 = 0.0074	784.55
323.04 K, 6000 kPa, x1 = 0.0196	813.21
323.04 K, 7000 kPa, x1 = 0.0074	785.48
323.04 K, 7000 kPa, x1 = 0.0196	814.12
323.04 K, 8000 kPa, x1 = 0.0074	786.42
323.04 K, 8000 kPa, x1 = 0.0196	815.02
323.04 K, 9000 kPa, x1 = 0.0074	787.36
323.04 K, 9000 kPa, x1 = 0.0196	815.91
323.04 K, 10000 kPa, x1 = 0.0074	788.29
323.04 K, 10000 kPa, x1 = 0.0196	816.8
323.04 K, 11000 kPa, x1 = 0.0074	789.22
323.04 K, 11000 kPa, x1 = 0.0196	817.69
323.04 K, 12000 kPa, x1 = 0.0074	790.13
323.04 K, 12000 kPa, x1 = 0.0196	818.56
323.04 K, 13000 kPa, x1 = 0.0074	791.03
323.04 K, 13000 kPa, x1 = 0.0196	819.44
323.04 K, 14000 kPa, x1 = 0.0074	791.94
323.04 K, 14000 kPa, x1 = 0.0196	820.29
323.04 K, 15000 kPa, x1 = 0.0074	792.82
323.04 K, 15000 kPa, x1 = 0.0196	821.15
